# Measurements taken from patent US10864212B2, “Compositions and methods for treating retinal degradation” (University of Kentucky Research Foundation, priority 2013, dated 2020).
# Entries after “also recorded” stand apart in the source; their conditions may differ.
# Experiments:
# NLRP3 mRNA = assay: NLRP3 priming (mRNA) induced by Alu RNA in primary human RPE cells; assay type: cell-based; details: Alu RNA transfection, 16 hours, d4T 100 uM, FIG. 13
# Experimental: Indeed, as provided in the bar graph of FIG. 13, Alu RNA transfection increases NLRP3 mRNA levels in primary human RPE cells at 16 hours, an event termed “priming” (Y-axis) compared to mock (transfection reagent alone).
# IL-1 beta mRNA = assay: IL-1beta priming (mRNA) induced by Alu RNA in primary human RPE cells; assay type: cell-based; details: Alu RNA transfection, 24 hours, d4T 100 uM, FIG. 14
# Experimental: FIG. 14 illustrates, in graph format, that Alu RNA transfection increases IL-1 beta mRNA levels in primary human RPE cells at 24 hours, an event termed “priming”, (Y-axis) compared to mock (transfection reagent alone).
# FIG. 14 illustrates that Alu RNA transfection increases IL-1 beta mRNA levels in primary human RPE cells at 24 hours, an event termed “priming”, (Y-axis) compared to mock (transfection reagent alone).
# IRAK4 = assay: Western blot of IRAK4 phosphorylation in primary human RPE cells transfected with Alu RNA; assay type: cell-based; details: FIG. 34
# Text: Alu RNA mediates RPE cell death via activation of Caspase 1 and the NLRP3 inflammasome (Tarallo et al., 2012).
# human P2X7 receptor = target: T1, human P2X7 receptor (Homo sapiens, UniProt Q99572); assay: Patch clamp analysis of P2X7 cation channel function, HEK293 stable cell line expressing human P2X7 receptor; assay type: cell-based
# T1 construct: expressed in transfected cells
# T1 sequence (Q99572 1-595): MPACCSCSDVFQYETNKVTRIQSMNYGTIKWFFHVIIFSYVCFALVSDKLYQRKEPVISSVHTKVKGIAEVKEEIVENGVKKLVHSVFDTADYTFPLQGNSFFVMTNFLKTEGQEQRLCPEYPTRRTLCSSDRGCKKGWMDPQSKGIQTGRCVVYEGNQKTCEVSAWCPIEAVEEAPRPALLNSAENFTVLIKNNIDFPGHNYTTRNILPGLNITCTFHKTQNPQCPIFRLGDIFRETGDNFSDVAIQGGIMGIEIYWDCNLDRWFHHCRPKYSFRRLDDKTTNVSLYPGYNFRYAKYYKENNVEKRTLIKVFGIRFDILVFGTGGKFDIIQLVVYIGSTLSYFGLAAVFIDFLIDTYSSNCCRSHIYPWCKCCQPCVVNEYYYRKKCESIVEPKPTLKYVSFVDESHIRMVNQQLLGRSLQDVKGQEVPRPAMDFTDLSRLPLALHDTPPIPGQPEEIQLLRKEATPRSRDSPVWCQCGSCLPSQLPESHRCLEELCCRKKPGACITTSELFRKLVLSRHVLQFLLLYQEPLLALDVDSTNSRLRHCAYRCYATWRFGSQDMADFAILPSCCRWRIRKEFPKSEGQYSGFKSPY
# mtDNA = mtDNA levels in primary mouse RPE cells by real-time quantitative PCR; assay type: cell-based
# Text: (§1) The present disclosure further provides the results of additional experiments in FIG. 21-FIG. 23.
# RPE degeneration = RPE degeneration in mice after sub-retinal injection of a plasmid expressing Alu RNA, systemic drug administration; assay type: in vivo, mouse; details: daily oral administration of d4T, FIG. 36
# Text: FIG. 24, top row, provides flat mounts stained for zonula occludens-1 (ZO-1; red), bottom row. Degeneration is outlined if FIG. 24 by blue arrowheads. Representative images of n=4 are shown.
# FIG. 36 and FIG. 37 include fundus photographs: top row; flat mounts stained for zonula occludens-1 (ZO-1; red), bottom row. Degeneration is outlined by blue arrowheads. Scale bars, 50 μm.
# [1] = system: mitochondrial reactive oxygen species (mtROS); assay: MitoSox assay of mitochondrial ROS in primary human RPE cells with Alu expressing plasmid; assay type: cell-based; details: pAluA vs pUC19, after 15 hours, FIG. 15, 54
# Experimental: After 15 hours cells were co-stained for mtROS (red) and for cell count, nuclei (blue; Hoechst DNA stain).
# In FIG. 54, mitochondrial reactive oxygen species (ROS) were visualized with MitoSox (Red) and cell nuclei with Hoechst (Blue).
# Caspase-1 [2] = assay: Western blot of Caspase-1 activation in primary mouse RPE cells transfected with Alu RNA; assay type: cell-based; details: FIG. 44
# ATP release = ATP release induced by Alu RNA from primary human RPE cells (ATP-dependent luciferase assay); assay type: cell-based; details: cell culture supernatant, FIG. 16, 42
# Text: Cell culture supernatant was collected from mock or Alu RNA treated cells, with or without d4T, and ATP was detected using an ATP-dependent luciferase assay.
# (FIG. 16) Primary human RPE cells treated with Alu RNA for the times indicated release ATP. […] ATP was detected using an ATP-dependent luciferase assay.
# Caspase-1 [3] = assay: LPS/nigericin-induced Caspase-1 activation in mouse bone marrow-derived macrophages (Western blot); assay type: cell-based; details: d4T 100, 250 uM, FIG. 10
# Text: To produce FIG. 10, cell culture supernatants were collected after (i) no treatment, (ii) LPS treatment, or (iii) LPS/nigericin treatment of mouse bone marrow-derived macrophages and run on Western blotting probing with antibodies for IL-1 beta and Caspase-1.
# Cell culture supernatants were collected after (i) no treatment, (ii) LPS treatment, or (iii) LPS/nigericin treatment of mouse bone marrow-derived macrophages, and run on Western blotting probing with antibodies for IL-1 beta and Caspase-1.
# [4] = system: GFP-expressing lentivirus; assay: Replication of a GFP-expressing lentivirus in HeLa cells; assay type: cell-based; details: HeLa cells; FIG. 22
# Text: as §1
# Caspase-1 [5] = assay: Western blot of Caspase-1 activation in primary human RPE cells transfected with Alu RNA; assay type: cell-based
# Experimental: The bottom row is a vinculin loading control. […]
# FIG. 7 is a Western blot showing that Alu RNA causes Caspase-1 maturation in primary human RPE cells at 24 hours after Alu administration (top, middle lane, lower band), which is blocked with co-treatment with azidothymidine (AZT), cordycepin, and abacavir (ABC) (50-100 uM; lanes 3-8 from left). The loading control vinculin is shown on the bottom.
# FIG. 21 is a Western blot of Caspase-1 activation (p20 subunit) in primary human RPE cells transfected with Alu RNA±me-d4T.
# FIG. 35 is a Western blot of Caspase-1 activation in human RPE cells transfected with Alu RNA±NRTIs (3TC, AZT, ABC).
# The bottom row in FIG. 5 is a vinculin loading control. […]
# Next, FIG. 7 provides evidence of AZT, cordycepin, and abacavir inhibition of inflammasome activation by Alu RNA. Indeed, Alu RNA causes NLRP3 inflammasome activation, which is marked by processing of the enzyme Caspase 1. FIG. 7 is a Western blot showing that Alu RNA causes Caspase-1 maturation in primary human RPE cells at 24 hours after Alu administration (top, lane 2, lower band), which is blocked with co-treatment with azidothymidine (AZT), cordycepin, and abacavir (ABC) (50-100 uM; Lanes 3-8). Again, the loading control vinculin is shown on the bottom.
# [6] = system: extracellular potassium levels; assay: Extracellular potassium levels after Alu RNA transfection of primary human RPE cells (pyruvate kinase assay); assay type: cell-based; details: primary human RPE cells treated with Alu RNA for 6 hours; FIG. 18
# Experimental: Potassium levels were determined in cell culture supernatants spectrophotometrically using a potassium-dependent pyruvate kinase assay.
# For FIG. 18, potassium levels were determined in cell culture supernatants spectrophotometrically using a potassium-dependent pyruvate kinase assay.
compound,measurement,setting,value
"Cc1cn([C@H]2C=C[C@@H](CO)O2)c(=O)[nH]c1=O [d4T, 2′3′ dideoxythymidine]","NLRP3 mRNA levels (priming), normalized to 18S RNA",NLRP3 mRNA,blunted
same,"IL-1 beta mRNA levels (priming), normalized to 18S RNA",IL-1 beta mRNA,blunted
same,IRAK4 phosphorylation,IRAK4,blocks phosphorylation of IRAK4
same,P2X7 cation channel function (patch clamp),human P2X7 receptor,did not significantly modulate P2X7 cation channel function
same,mtDNA levels (normalized to chromosomal DNA exon-intron junction sequence),mtDNA,reduces mtDNA levels
same,RPE degeneration caused by pAlu,RPE degeneration,blocked RPE degeneration; also recorded: prevented
same,Mitochondrial ROS (mtROS) caused by Alu expression (MitoSox),[1],blocks mitochondrial ROS (mtROS) production; also recorded: reduces mitochondrial ROS caused by Alu expression; also recorded: prevents pAlu-induced mitochondrial ROS generation
same,Caspase 1 cleavage to its active 20 kDa form,Caspase-1 [2],prevents Caspase 1 cleavage to its active 20 kDa form
same,ATP release induced by Alu RNA,ATP release,does not block release of ATP; also recorded: did not affect ATP release; also recorded: does not block Alu-induced ATP release
same,Caspase-1 activation (active p20 band) induced by nigericin,Caspase-1 [3],inhibits
same,Replication of a GFP-expressing lentivirus,[4],blocks replication of a GFP-expressing lentivirus
same,Caspase-1 maturation caused by Alu RNA,"Caspase-1 [5]; 24 hours after Alu administration, d4T 100 uM, FIG. 5",blocked
same,Caspase-1 activation / cleavage (p20) induced by Alu RNA,"Caspase-1 [5]; concentration not given, FIG. 21, 34, 35, 51-53",block Caspase 1 activation by Alu RNA; also recorded: prevents Caspase 1 cleavage to its active 20 kDa form
same,Extracellular potassium levels after Alu RNA transfection,[6],reduces extracellular potassium levels
